Measured values reported in patent US11324706B2, “Composition for inhibiting growth of breast cancer stem cells containing phenylacetaldehyde” (JEJU NATIONAL UNIVERSITY INDUSTRY-ACADEMIC COOPERATION …, priority 2016, dated 2022).

Tested on: MCF-7 cell-derived mammospheres
Test: Mammosphere formation, MCF-7-derived
Assay type: cell-based, human
Conditions: volatile materials exposed to MCF-7 (FIG. 5B)
Procedure: FIGS. 4A, 4B and 4C show effects of PAA on formation of MCF-7 cell-derived mammospheres. Primary mammospheres were cultured together with PAA (0.2 and 0.5 mM) or DMSO;
Human breast cancer cells, i.e., MCF-7 and MDA-MB-231, were commercially obtained from American Type Culture Collection (ATCC; Manassas, Va., USA). MCF-7 and MDA-MB-231 cells were cultured in Dulbecco's modified essential medium (DMEM; Hyclone, Logan, Utah, USA) containing 10% fetal bovine serum (FBS; Hyclone), 100 U/mL of penicillin, and 100 μg/mL of streptomycin (Hyclone). The MCF-7 and MDA-MB-231 cells were maintained at 37° C. in a 5% CO2-containing humidified incubator. The cells were plated at a density of 1×10^6 on a 10 cm petri dish. In order to establish primary mammospheres, single cell-suspended MCF-7 and MDA-MB-231 cells were seeded at a density (cells/well) of 3.5×10^4 to 4×10^4 and 0.5×10^4 to 1×10^4, respectively, on ultra-low attachment 6-well plates containing 2 ml complete MammoCult™ medium (StemCell Technologies, Vancouver, BC, Canada). The complete MammoCult™ medium was supplemented with 4 μg/mL of heparin, 0.48 μg/mL of hydrocortisone, 100 U/mL of penicillin and 100 μg/mL of streptomycin. The cells were cultured for 7 days in a 37° C. 5% CO2 incubator.
At 7 days of culture, the cell culture plate was disposed on a scanner (Epson Perfection V700 PHOTO, Epson Korea, Co, Seoul, Korea) to obtain an 8 bit gray scale image of mammospheres. The image was obtained at a low resolution (300 dpi) using an NICE software program and downloaded from ftp://ftp.nist.gov/pub/physics/mLclarke/NICE. For counting, preferred numbers of rows and columns (for example, 2×3 of 6-well plate) were selected to form regions of interest (ROIs), and an oval setting of the NICE program was selected and then respective ROIs were defined by moving the shapes of provided ROIs and controlling the sizes thereof. The background signal of the image was negated using a critical algorithm and the selected image was automatically counted. Regarding the mammosphere formation analysis, formation efficiency of mammospheres (MFE, %) was determined in accordance with the number of mammospheres per well/the total number of cells plated per well×100.

SMILES | formation of primary mammospheres derived from MCF-7 cells
CC(C=O)c1ccccc1 (centres unmarked) [2-phenylpropionaldehyde] | potently inhibited
O=CCCc1ccccc1 [3-phenylpropionaldehyde] | inhibited
